We go through 1 compound from patent US12097210B2, “Concomitant administration of glucocorticoid receptor modulators and CYP3A inhibitors” (Corcept Therapeutics, Inc., priority 2017, dated 2024).

The data set in a line: clinical. The following applies: male, human, in vivo. As for the experimental part:
This study was conducted in accordance with Good Clinical Practice under the guidance of an Institutional Review Board and in accordance with applicable local legal and regulatory requirements.
KORLYM® was supplied in 300 mg tablets for oral administration. Three or four tablets were administered once daily (OD) to provide either the 900 mg or 1200 mg per day dose.
Itraconazole was supplied • in 100 mg capsules for oral administration. Two capsules were administered once daily (OD) to provide the 200 mg per day dose.
All drug administrations were oral and were given after the morning meal.
The inclusion criteria required, among other criteria, that the subjects be healthy male subjects between the ages of 18 and 65, weigh more than 110 pounds, and have a body mass index (BMI) of 18 to 32 kg/m^2. The design included a Screening Period of up to 3 weeks (subjects were screened at a time between days −21 to −1 prior to the first treatment period), three 14-day treatment periods, and a Follow-Up (FU) Period of 14 days for safety observation.
Subjects meeting the inclusion criteria (n=22) were administered drug daily and blood samples were taken on the days indicated below during Periods 1-3 and on day 43 of the follow-up period.
Subjects presented at the Clinical Research Unit (CRU) after an 8-hour overnight fast, then predose PK samples were taken and other evaluations (predose electrocardiograms (ECGs), plasma cortisol and ACTH, serum chemistry tests) were performed. […] On the specific days indicated above, additional blood draws for determining 24-hour PK profiles were performed.
Pharmacokinetic (PK) parameters measured and computed included AUC (area under the concentration−time curve), AUC0-24 (AUC values from time 0 to 24 hours postdose), Cmax (maximum concentration), and Css (average steady-state concentration, calculated as AUC0-24/24).

Regarding `CC#C[C@]1(O)CC[C@H]2[C@@H]3CCC4=CC(=O)CCC4=C3[C@@H](c3ccc(N(C)C)cc3)C[C@@]21C` [Mifepristone, 11β-(4-dimethylaminophenyl)-17β-hydroxy-17α-(1-propynyl)-estra-4,9-dien-3-one], under “900 mg”, the AUC(0-t) was 59600 ng·h/mL and the Cmax, Geometric Means was 3550 ng/mL. Moreover, for the setting “1200 mg”, the “AUC(0-24), Geometric Means” value is reported as 67,700 and the Cmax turned out to be 4360 ng/mL.
